Measured values from ChEMBL document CHEMBL1201862, “PubChem BioAssay data set” (2004).
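In this assay, cells in 96-well plates receive the compound at five concentrations for 48 hours. Endpoints are linearly interpolated between the surrounding concentrations. Here, GI50 denotes the concentration required for 50% inhibition of growth.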 Active and inactive are the calls of the source. Rule as the data show it: active = GI50 up to about 1.1 µM and inactive = higher.

Columns and labels:
Assay in all cases: DTP human tumour cell line panel, 48 h
A498 = system: A498
CAKI-1 = system: CAKI-1
CCRF-CEM = system: CCRF-CEM
COLO 205 = system: COLO 205
EKVX = system: EKVX
HCC 2998 = system: HCC 2998
HCT-116 = system: HCT-116
HT-29 = system: HT-29
M14 = system: M14
MCF7 = system: MCF7
MDA-N = system: MDA-N
MOLT-4 = system: MOLT-4
OVCAR-4 = system: OVCAR-4
OVCAR-5 = system: OVCAR-5
OVCAR-8 = system: OVCAR-8
SF-539 = system: SF-539
SK-MEL-2 = system: SK-MEL-2
SK-OV-3 = system: SK-OV-3
SNB-19 = system: SNB-19
UACC-62 = system: UACC-62

SMILES	GI50 (A498)	GI50 (CAKI-1)	GI50 (CCRF-CEM)	GI50 (COLO 205)	GI50 (EKVX)	GI50 (HCC 2998)	GI50 (HCT-116)	GI50 (HT-29)	GI50 (M14)	GI50 (MCF7)	GI50 (MDA-N)	GI50 (MOLT-4)	GI50 (OVCAR-4)	GI50 (OVCAR-5)	GI50 (OVCAR-8)	GI50 (SF-539)	GI50 (SK-MEL-2)	GI50 (SK-OV-3)	GI50 (SNB-19)	GI50 (UACC-62)
c1c[nH]c(-c2cccc3nsnc23)c1	61.7 µM (inactive)	43.5 µM (inactive)	93.1 µM (inactive)	13.5 µM (inactive)	33 µM (inactive)	> 100 µM (inactive)	59.7 µM (inactive)	53.3 µM (inactive)	> 100 µM (inactive)	6.7 µM (inactive)	> 100 µM (inactive)	40.7 µM (inactive)	38.8 µM (inactive)	31.8 µM (inactive)	78 µM (inactive)	> 100 µM (inactive)	> 100 µM (inactive)	> 100 µM (inactive)	> 100 µM (inactive)	71.9 µM (inactive)
Cn1c2ccccc2c2cc(-c3ccccc3)c3c(c21)C(=O)C=CC3=O	22.5 µM (inactive)	18.3 µM (inactive)	1.59 µM (inactive)	17.5 µM (inactive)	39.7 µM (inactive)	34.1 µM (inactive)	20.2 µM (inactive)	17.5 µM (inactive)	21.1 µM (inactive)	12.3 µM (inactive)	19.4 µM (inactive)	3.59 µM (inactive)	18.8 µM (inactive)	19 µM (inactive)	30.3 µM (inactive)	27.3 µM (inactive)	22.4 µM (inactive)	> 88.1 µM (inactive)	36.6 µM (inactive)	19.3 µM (inactive)
COC(=O)CCC(C)[C@H]1CCC2C3CC[C@@H]4CC5(CC[C@]4(C)C3C[C@H](OC(C)=O)[C@@]21C)OOC1(CCCCC1)OO5 (stereo not given in full)	> 100 µM (inactive)	4.03 µM (inactive)	5.3 µM (inactive)	6.17 µM (inactive)	1.9 µM (inactive)	2.25 µM (inactive)	3.24 µM (inactive)	14.2 µM (inactive)	3.33 µM (inactive)	8.69 µM (inactive)	8.26 µM (inactive)	6.11 µM (inactive)	4.06 µM (inactive)	17.3 µM (inactive)	13.7 µM (inactive)	44.7 µM (inactive)	5.26 µM (inactive)	> 100 µM (inactive)	> 100 µM (inactive)	> 100 µM (inactive)
Clc1ncc(Cl)c(Cl)n1	19.1 µM (inactive)	1.86 µM (inactive)	2.47 µM (inactive)	1.72 µM (inactive)	13.3 µM (inactive)	4.21 µM (inactive)	2.82 µM (inactive)	1.36 µM (inactive)	3.24 µM (inactive)	1.59 µM (inactive)	3.37 µM (inactive)	1.5 µM (inactive)	2.08 µM (inactive)	19.8 µM (inactive)	3.86 µM (inactive)	8.97 µM (inactive)	2.12 µM (inactive)	4.7 µM (inactive)	3.3 µM (inactive)	1.91 µM (inactive)
OC1c2[nH]c3ccccc3c2CCN2CCCCC12 (stereo not given)	> 100 µM (inactive)	> 100 µM (inactive)	> 100 µM (inactive)	> 100 µM (inactive)	> 100 µM (inactive)	75.3 µM (inactive)	> 100 µM (inactive)	> 100 µM (inactive)	> 100 µM (inactive)	> 100 µM (inactive)	> 100 µM (inactive)	> 100 µM (inactive)	> 100 µM (inactive)	> 100 µM (inactive)	> 100 µM (inactive)	> 100 µM (inactive)	> 100 µM (inactive)	> 100 µM (inactive)	> 100 µM (inactive)	> 100 µM (inactive)
CO[C@H](C)[C@](O)(C(=O)OCC1=CCN2CC[C@@H](O)[C@H]12)C(C)C	> 100 µM (inactive)	> 100 µM (inactive)	> 100 µM (inactive)	> 100 µM (inactive)	> 100 µM (inactive)	> 100 µM (inactive)	> 100 µM (inactive)	> 100 µM (inactive)	> 100 µM (inactive)	> 100 µM (inactive)	> 100 µM (inactive)	> 100 µM (inactive)	> 100 µM (inactive)	> 100 µM (inactive)	> 100 µM (inactive)	> 100 µM (inactive)	> 100 µM (inactive)	> 100 µM (inactive)	> 100 µM (inactive)	> 100 µM (inactive)
O=C(/C=C1/Nc2ccc([N+](=O)[O-])cc2N/C1=C/C(=O)c1ccccc1)c1ccccc1	21.4 µM (inactive)	26.7 µM (inactive)	10.6 µM (inactive)	53.6 µM (inactive)	30.8 µM (inactive)	55.8 µM (inactive)	20.7 µM (inactive)	71.1 µM (inactive)	86.9 µM (inactive)	21 µM (inactive)	> 100 µM (inactive)	22.5 µM (inactive)	5.6 µM (inactive)	> 100 µM (inactive)	16.8 µM (inactive)	8.2 µM (inactive)	0.385 µM (active)	23 µM (inactive)	21.6 µM (inactive)	12.6 µM (inactive)
